Results from US20180193294A1, “Dehydroabietic acid (DHAA) derivatives for use as ion channel openers” (priority 2015, published 2018).

Tests used:
3R Shaker K channel = 3R Shaker K channel (Drosophila melanogaster, UniProt P08510, A359R/M356R); experiment: cell-based; type: cell-based; settings: for compound-induced G(V) shift (mean±SEM) / G(V) shift: pH 7.4, Xenopus oocytes; for ΔG(V) of representative G(V) curves (single examples): pH 7.4, same cells as representative traces; for relative current amplitude: representative traces at voltage giving 10% of maximum conductance in control, pH 7.4; for G(V) shift: Table 1
3R Shaker K channel, sequence (P08510 whole entry M356R/A359R): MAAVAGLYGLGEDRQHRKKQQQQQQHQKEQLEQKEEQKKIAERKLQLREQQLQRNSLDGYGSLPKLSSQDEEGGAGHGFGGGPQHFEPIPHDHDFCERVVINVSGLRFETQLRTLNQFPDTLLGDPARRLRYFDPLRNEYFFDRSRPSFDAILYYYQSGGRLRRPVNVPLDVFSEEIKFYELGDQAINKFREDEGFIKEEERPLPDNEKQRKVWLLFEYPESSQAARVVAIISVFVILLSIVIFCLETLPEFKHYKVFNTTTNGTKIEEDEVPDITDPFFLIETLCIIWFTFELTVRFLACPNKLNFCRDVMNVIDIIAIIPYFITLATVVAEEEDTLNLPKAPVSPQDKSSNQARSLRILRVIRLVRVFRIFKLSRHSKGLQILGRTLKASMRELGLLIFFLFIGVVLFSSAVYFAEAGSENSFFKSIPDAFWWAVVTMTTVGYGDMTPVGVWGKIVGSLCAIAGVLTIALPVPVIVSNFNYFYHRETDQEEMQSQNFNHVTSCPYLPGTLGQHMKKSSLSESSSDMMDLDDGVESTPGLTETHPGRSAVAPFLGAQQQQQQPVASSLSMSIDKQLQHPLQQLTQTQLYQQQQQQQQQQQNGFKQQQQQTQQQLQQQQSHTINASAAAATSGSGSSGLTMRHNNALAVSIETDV
Description: A 3R Shaker K channel is a modified Shaker K channel where residues 356 and 359 are mutated to arginines.
(§1) All animal experiments were approved by the local Animal Care and Use Committee and followed international guidelines. A modified Shaker H4 channel^30, with removed N-type inactivation (ShH4IR)^31, here called the wild type (WT) channel, was expressed in oocytes. In addition, a modified 3R Shaker K channel where two introduced positive charged arginines (M356R and A359R) in addition to one native arginine (R362) makes the channel more sensitive to DHA^16, was expressed in oocytes and in a CHO—K1 stable cell line.
(§2) African clawed frogs (Xenopus laevis) were anesthetized with 1.4 g/L ethyl 3-aminobenzoate methanesulfonate salt (tricaine). After an incision through the abdomen a batch of oocytes were removed. Clusters of oocytes were separated by incubation for ˜1 h in a Ca-free O—R2 solution (in mM: 82.5 NaCl, 2 KCl, 5 HEPES, and 1 MgCl2; pH adjusted to 7.4 by NaOH) containing Liberase Blendzyme. The oocytes were then incubated at 8° C. in a modified Barth's solution (MBS; in mM: 88 NaCl, 1 KCl, 2.4 NaHCO3, 15 HEPES, 0.33 Ca(NO3)2, 0.41 CaCl2, and 0.82 MgSO4; pH adjusted to 7.6 by NaOH) supplemented with penicillin (25 U/ml), streptomycin (25 μg/ml), and sodium pyruvate (2.5 mM) 2-24 hours before injection. Fifty nl of cRNA (50 pg) were injected into each oocyte using a Nanoject injector (Drummond Scientific, Broomall, Pa.). Injected oocytes were kept at 8° C. in MBS until one day before electrophysiological recordings, when they were incubated at 16° C. All chemicals were supplied from Sigma-Aldrich (Stockholm, Sweden) if not stated otherwise.
(§3) All manual electrophysiological recordings were performed at room temperature (20-23° C.), using a GeneClamp 500B amplifier (for oocytes) or a Axopatch 200B amplifier (for manual patch clamp of CHO—K1 cells and DRG neurons) and a Digidata 1440A digitizer and pClamp 10 software (all from Molecular Devices, Inc., Sunnyvale, Calif., USA). Compounds were dissolved to 100 mM in 99.5% EtOH and stored at −20° C. Compounds were diluted in extracellular solution to the desired test concentration.
(§4) The oocyte was placed in a bath surrounded by 1K extracellular solution that contained (in mM): 88 NaCl, 1 KCl, 15 HEPES, 0.4 CaCl2, and 0.8 MgCl2, pH adjusted to 7.4 by NaOH (reaching a sodium concentration of ˜100 mM). Control solution was added to the bath with a gravity driven perfusion system. Compound solution was added to the bath manually with a syringe. Two glass microelectrodes were inserted into the oocyte using micromanipulators. […] All channels were closed when the potential was clamped to −80 mV and this voltage was set as the holding potential. Currents were evoked from the holding potential of −80 mV by 100-ms long, 5-mV steps ranging from −80 up to +50 mV (WT) and +70 mV (3R).
(§5) Conductance GK(V) was calculated as GK(V)=[…], (Eq. 1) where IK is the average current from the steady-state phase at the end of each 100-ms pulse, V is the membrane voltage, and Vrev is the reversal potential for K^+, (set to −80 mV for the oocytes, and calculated to be −89 mV for the CHO—K1 cells).
(§6) G(V)=A/(1+exp((V1/2−V)/s))^n (Eq. 2) where A is amplitude of the curve, V is the absolute membrane voltage, V1/2 is the midpoint, s is the slope and n is an exponent set to 4^17. The compound-induced G(V) shift was determined at the 10% level of the maximum conductance in control solution^17. The compound-induced G(V) shift in CHO—K1 was quantified by subtracting the control V1/2 from the compound V1/2 when n was set to 1.
(§7) Data for concentration and pH dependent G(V) shifts (ΔV) in oocytes were fit with a dose-response equation ΔV=ΔVmax/(1+c1/2/c), (Eq. 3) where Δvmax is the maximal shift, c1/2 is half maximal effective concentration/pKa value and c is the concentration.

WT Shaker K channel = WT Shaker K channel (Drosophila melanogaster, UniProt P08510, DEL6-46); experiment: physchem; type: cell-based; settings: 100 μM; for G(V) shift for WT: pH 7.4, Xenopus oocytes
WT Shaker K channel, sequence (P08510 other isoform, or with tags, fused parts or gaps DEL6-46): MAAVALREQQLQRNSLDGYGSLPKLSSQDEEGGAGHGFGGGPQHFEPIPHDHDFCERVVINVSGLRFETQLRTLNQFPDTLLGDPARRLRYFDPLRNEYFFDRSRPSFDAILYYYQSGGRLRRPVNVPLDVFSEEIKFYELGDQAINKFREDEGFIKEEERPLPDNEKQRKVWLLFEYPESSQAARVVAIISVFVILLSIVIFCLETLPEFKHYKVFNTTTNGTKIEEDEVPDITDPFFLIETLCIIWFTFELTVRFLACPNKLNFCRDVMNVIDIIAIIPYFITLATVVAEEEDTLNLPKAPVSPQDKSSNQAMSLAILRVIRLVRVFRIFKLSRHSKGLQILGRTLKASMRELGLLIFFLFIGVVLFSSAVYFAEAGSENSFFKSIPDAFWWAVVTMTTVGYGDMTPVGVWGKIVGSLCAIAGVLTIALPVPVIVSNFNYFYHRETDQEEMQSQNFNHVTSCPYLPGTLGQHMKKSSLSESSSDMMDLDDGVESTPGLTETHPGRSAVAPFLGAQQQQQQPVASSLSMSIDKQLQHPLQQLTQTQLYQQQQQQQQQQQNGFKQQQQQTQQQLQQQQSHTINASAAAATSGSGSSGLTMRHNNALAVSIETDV
Description: A Shaker K channel is a Kv channel from the fruit fly Drosophila melanogaster. It is homologous to the human Kv1-type ion channels.
as §1, §2, §3, §4, §5, §6, §7

## CC(C)c1ccc2c(c1)CC[C@H]1[C@](C)(C(=O)O)CCC[C@]21C [DHAA, dehydroabietic acid]
3R Shaker K channel
  Kd: 89 µM
3R Shaker K channel; Drosophila melanogaster, from pH dependence of G(V) shift, 100 μM
  pKa: 7.3
WT Shaker K channel; Drosophila melanogaster, from pH dependence of G(V) shift
  pKa: 7.2

## CC/C=C\C/C=C\C/C=C\C/C=C\C/C=C\C/C=C\CCC(=O)O [DHA]
WT Shaker K channel
  G(V) shift for WT: −6.0 mV

## C=C[C@@]1(C)CC[C@H]2C(=CC[C@@H]3[C@]2(C)CCC[C@@]3(C)C(=O)O)C1 [Iso-PiMA, isopimaric acid, reference compound]
3R Shaker K channel; 100 μM
  compound-induced G(V) shift (mean±SEM): −15.9±1.8 mV
  ΔG(V) of representative G(V) curves (single examples): −20.0 mV
  relative current amplitude: 5.7 times
WT Shaker K channel
  G(V) shift for WT: much smaller effects on WT compared to the 3R Shaker K channel

## C=C[C@@]1(C)C=C2CC[C@@H]3[C@](C)(CCC[C@@]3(C)C(=O)O)[C@H]2CC1 [PiMA, pimaric acid, reference compound]
3R Shaker K channel; 100 μM
  compound-induced G(V) shift (mean±SEM): −10.4±0.8 mV
  ΔG(V) of representative G(V) curves (single examples): −10.8 mV
  relative current amplitude: 2.4 times
WT Shaker K channel
  G(V) shift for WT: much smaller effects on WT compared to the 3R Shaker K channel

## C[C@]1(C(=O)O)CCC[C@]2(C)c3cc(O)ccc3CC[C@@H]12 [PoCA, podocarpic acid, reference compound]
3R Shaker K channel; 100 μM
  ΔG(V) of representative G(V) curves (single examples): +0.1 mV
  relative current amplitude: 1.0 times
WT Shaker K channel
  G(V) shift for WT: not significantly different from the 3R Shaker K channel

## C=CCO/N=C1\CC2[C@](C)(C(=O)O)CCC[C@]2(C)c2cc(C=C)c(C(C)C)cc21 (stereo partly drawn) [Wu120, (1R,4aS,E)-9-((allyloxy)imino)-7-isopropyl-1,4a-dimethyl-6-vinyl-1,2,3,4,4a,9,10,10a-octahydrophenanthrene-1-carboxylic acid]
3R Shaker K channel; 100 μM
  G(V) shift: −26.1 mV

## CC(C)c1cc2c(cc1C1CC1)[C@@]1(C)CCC[C@@](C)(C(=O)O)C1CC2=O (stereo partly drawn) [Wu121, (1R,4aS)-6-cyclopropyl-7-isopropyl-1,4a-dimethyl-9-oxo-1,2,3,4,4a,9,10,10a-octahydrophenanthrene-1-carboxylic acid]
3R Shaker K channel; 100 μM
  G(V) shift: −6.7 mV

## CO/N=C1\CC2[C@](C)(C(=O)O)CCC[C@]2(C)c2cc(C3CC3)c(C(C)C)cc21 (stereo partly drawn) [Wu122, (1R,4aS,E)-6-cyclopropyl-7-isopropyl-9-(methoxyimino)-1,4a-dimethyl-1,2,3,4,4a,9,10,10a-octahydrophenanthrene-1-carboxylic acid]
3R Shaker K channel; 100 μM
  G(V) shift: −32.3 mV

## C=CCO/N=C1\CC2[C@](C)(C(=O)O)CCC[C@]2(C)c2cc(C3CC3)c(C(C)C)cc21 (stereo partly drawn) [Wu123, (1R,4aS,E)-9-((allyloxy)imino)-6-cyclopropyl-7-isopropyl-1,4a-dimethyl-1,2,3,4,4a,9,10,10a-octahydrophenanthrene-1-carboxylic acid]
3R Shaker K channel; 100 μM
  G(V) shift: −26.3 mV

## CC(C)c1ccc2c(c1-c1ccccc1)CC[C@H]1[C@](C)(C(=O)O)CCC[C@]21C [Wu124]
3R Shaker K channel; 100 μM
  G(V) shift: −0.4 mV

## CC(C)c1ccc2c(c1C1CC1)CC[C@H]1[C@](C)(C(=O)O)CCC[C@]21C [Wu127]
3R Shaker K channel; 100 μM
  G(V) shift: −9.6 mV

## C[C@]1(C(=O)O)CCC[C@]2(C)c3ccccc3CCC12 (stereo partly drawn) [Wu129, (1S,4aS)-1,4a-dimethyl-1,2,3,4,4a,9,10,10a-octahydrophenanthrene-1-carboxylic acid]
3R Shaker K channel; 100 μM
  G(V) shift: −5.1 mV

## C[C@@]1(C(=O)O)CCC[C@]2(C)c3c(Cl)c(Cl)c(Cl)c(Cl)c3CCC12 (stereo partly drawn) [Wu133, (1R,4aS)-5,6,7,8-tetrachloro-1,4a-dimethyl-1,2,3,4,4a,9,10,10a-octahydrophenanthrene-1-carboxylic acid]
3R Shaker K channel; 100 μM
  G(V) shift: −25.6 mV

## C[C@]1(C(=O)O)CCC[C@]2(C)c3cc(Cl)ccc3CCC12 (stereo partly drawn) [Wu135, (1S,4aS)-6-chloro-1,4a-dimethyl-1,2,3,4,4a,9,10,10a-octahydrophenanthrene-1-carboxylic acid]
3R Shaker K channel; 100 μM
  G(V) shift: −12.0 mV

## C[C@]1(C(=O)O)CCC[C@]2(C)c3ccc(Cl)cc3CCC12 (stereo partly drawn) [Wu136, (1S,4aS)-7-chloro-1,4a-dimethyl-1,2,3,4,4a,9,10,10a-octahydrophenanthrene-1-carboxylic acid]
3R Shaker K channel; 100 μM
  G(V) shift: −17.8 mV
